In publication doi:10.1101/2023.10.20.563248v1 (biorxiv, 2023):

Experiments:
Details in all cases: 1 µM; inhibitor
[1] = biological target: YES (Homo sapiens, UniProt P07947)
[2] = biological target: MAP4K2 (Homo sapiens, UniProt Q12851)
[3] = biological target: JAK3 (Homo sapiens, UniProt P52333)
[4] = biological target: RPS6KA2 (Homo sapiens, UniProt Q15349)
[5] = biological target: CK1d (Homo sapiens, UniProt P48730)
[6] = biological target: NIK (Homo sapiens, UniProt Q99558)
[7] = biological target: FES (Homo sapiens, UniProt P07332)
[8] = biological target: FAK (Homo sapiens, UniProt Q05397)
[9] = biological target: EPHB3 (Homo sapiens, UniProt P54753)
[10] = biological target: DAPK2 (Homo sapiens, UniProt Q9UIK4)
[11] = biological target: FGFR4 (Homo sapiens, UniProt P22455)
Chain of FGFR4 (P22455 whole entry): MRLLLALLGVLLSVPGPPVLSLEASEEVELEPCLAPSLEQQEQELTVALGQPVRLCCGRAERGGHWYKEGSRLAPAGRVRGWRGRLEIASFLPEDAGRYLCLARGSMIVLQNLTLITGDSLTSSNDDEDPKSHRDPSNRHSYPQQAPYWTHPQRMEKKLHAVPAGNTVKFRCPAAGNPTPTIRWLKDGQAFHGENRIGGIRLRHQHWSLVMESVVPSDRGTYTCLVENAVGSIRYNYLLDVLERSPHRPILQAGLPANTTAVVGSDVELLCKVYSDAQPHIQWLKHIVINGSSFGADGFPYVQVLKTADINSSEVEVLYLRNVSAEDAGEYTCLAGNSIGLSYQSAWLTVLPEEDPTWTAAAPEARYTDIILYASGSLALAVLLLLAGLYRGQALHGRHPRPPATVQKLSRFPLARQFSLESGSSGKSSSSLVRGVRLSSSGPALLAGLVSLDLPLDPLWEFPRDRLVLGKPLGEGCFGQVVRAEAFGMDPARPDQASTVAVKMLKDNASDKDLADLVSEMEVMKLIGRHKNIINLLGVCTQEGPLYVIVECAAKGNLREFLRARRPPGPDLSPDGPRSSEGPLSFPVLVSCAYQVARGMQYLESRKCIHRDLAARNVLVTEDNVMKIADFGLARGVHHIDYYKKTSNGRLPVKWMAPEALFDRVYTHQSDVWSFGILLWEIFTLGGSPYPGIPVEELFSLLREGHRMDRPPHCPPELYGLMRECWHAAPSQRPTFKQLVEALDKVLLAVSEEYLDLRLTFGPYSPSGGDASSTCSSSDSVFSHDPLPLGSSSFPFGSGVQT

[12] = biological target: MEK2 (Homo sapiens, UniProt P36507)
[13] = biological target: CDK1/CycB1 (Homo sapiens, UniProt P06493)
[14] = biological target: MYLK2 (Homo sapiens, UniProt Q9H1R3)
[15] = biological target: CDK8 (Homo sapiens, UniProt P49336)
Chain of CDK8 (P49336 whole entry): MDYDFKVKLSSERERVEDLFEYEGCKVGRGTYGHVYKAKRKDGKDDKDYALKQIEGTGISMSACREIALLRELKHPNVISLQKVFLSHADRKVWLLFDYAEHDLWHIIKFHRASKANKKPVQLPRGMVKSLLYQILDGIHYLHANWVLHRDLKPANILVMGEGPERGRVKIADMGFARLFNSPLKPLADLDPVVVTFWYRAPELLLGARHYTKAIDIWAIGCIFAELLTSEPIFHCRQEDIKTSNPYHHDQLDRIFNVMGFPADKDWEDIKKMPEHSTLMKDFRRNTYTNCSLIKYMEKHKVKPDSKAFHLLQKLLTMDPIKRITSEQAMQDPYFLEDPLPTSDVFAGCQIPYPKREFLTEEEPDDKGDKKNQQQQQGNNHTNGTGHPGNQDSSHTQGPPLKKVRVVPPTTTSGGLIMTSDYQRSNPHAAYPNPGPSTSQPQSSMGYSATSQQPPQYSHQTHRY

[16] = biological target: CAMKK1 (Homo sapiens, UniProt Q8N5S9)
[17] = biological target: GRK5 (Homo sapiens, UniProt P34947)
[18] = biological target: SAK (Homo sapiens, UniProt O00444)
[19] = biological target: SIK3 (Homo sapiens, UniProt Q9Y2K2)
[20] = biological target: MARK2 (Homo sapiens, UniProt Q7KZI7)
[21] = biological target: TGFBR2 (Homo sapiens, UniProt P37173)
[22] = biological target: TLK2 (Homo sapiens, UniProt Q86UE8)
Chain of TLK2 (Q86UE8 whole entry): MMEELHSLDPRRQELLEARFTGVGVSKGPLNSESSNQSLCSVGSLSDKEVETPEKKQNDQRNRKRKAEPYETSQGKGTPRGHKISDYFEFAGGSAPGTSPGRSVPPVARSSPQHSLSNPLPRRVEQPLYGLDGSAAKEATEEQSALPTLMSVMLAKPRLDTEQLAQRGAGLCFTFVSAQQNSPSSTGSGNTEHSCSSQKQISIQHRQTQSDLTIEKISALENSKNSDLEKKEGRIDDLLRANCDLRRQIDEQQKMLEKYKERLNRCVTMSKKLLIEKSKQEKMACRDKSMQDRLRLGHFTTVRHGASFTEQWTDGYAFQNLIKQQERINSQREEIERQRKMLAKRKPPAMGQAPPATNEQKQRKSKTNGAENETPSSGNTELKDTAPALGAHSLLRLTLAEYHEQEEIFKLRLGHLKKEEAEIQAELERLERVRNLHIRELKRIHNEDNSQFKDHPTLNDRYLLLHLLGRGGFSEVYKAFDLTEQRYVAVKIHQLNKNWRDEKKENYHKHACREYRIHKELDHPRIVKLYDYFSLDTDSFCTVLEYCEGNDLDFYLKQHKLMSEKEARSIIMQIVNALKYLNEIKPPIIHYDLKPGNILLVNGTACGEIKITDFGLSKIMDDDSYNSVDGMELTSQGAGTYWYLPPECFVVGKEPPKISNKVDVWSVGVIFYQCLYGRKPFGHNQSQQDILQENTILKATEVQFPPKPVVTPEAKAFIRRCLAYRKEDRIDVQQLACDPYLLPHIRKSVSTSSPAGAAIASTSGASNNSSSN

[23] = biological target: MKK7 (Homo sapiens, UniProt O14733)
Chain of MKK7 (O14733 whole entry): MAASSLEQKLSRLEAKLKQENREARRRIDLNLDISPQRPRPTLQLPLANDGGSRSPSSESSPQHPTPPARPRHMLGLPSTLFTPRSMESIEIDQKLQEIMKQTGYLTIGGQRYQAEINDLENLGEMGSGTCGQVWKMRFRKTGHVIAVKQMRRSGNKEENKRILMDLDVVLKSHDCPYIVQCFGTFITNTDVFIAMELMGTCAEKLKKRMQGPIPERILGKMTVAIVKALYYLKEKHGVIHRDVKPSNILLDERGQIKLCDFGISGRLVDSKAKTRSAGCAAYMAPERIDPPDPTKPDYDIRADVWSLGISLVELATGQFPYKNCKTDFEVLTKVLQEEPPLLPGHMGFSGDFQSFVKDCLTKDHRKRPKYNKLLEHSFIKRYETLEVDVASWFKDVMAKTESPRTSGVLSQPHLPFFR

[24] = biological target: GRK7 (Homo sapiens, UniProt Q8WTQ7)
Chain of GRK7 (Q8WTQ7 whole entry): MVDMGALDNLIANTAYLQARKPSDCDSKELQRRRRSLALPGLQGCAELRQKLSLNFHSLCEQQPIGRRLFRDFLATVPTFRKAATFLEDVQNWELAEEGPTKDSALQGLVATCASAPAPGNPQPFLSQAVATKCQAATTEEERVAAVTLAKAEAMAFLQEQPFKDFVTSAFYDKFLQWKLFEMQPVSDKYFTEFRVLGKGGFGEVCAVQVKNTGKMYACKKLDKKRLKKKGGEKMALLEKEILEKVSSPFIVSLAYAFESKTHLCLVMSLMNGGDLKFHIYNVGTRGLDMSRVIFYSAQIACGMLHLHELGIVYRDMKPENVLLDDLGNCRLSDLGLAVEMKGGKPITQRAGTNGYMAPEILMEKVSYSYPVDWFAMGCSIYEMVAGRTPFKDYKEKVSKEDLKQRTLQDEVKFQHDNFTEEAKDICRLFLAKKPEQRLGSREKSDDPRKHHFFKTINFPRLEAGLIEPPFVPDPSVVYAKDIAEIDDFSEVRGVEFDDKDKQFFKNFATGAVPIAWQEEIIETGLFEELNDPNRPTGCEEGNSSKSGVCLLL

[25] = biological target: NEK7 (Homo sapiens, UniProt Q8TDX7)
[26] = biological target: TGFBR1 (Homo sapiens, UniProt P36897)
Chain of TGFBR1 (P36897 whole entry): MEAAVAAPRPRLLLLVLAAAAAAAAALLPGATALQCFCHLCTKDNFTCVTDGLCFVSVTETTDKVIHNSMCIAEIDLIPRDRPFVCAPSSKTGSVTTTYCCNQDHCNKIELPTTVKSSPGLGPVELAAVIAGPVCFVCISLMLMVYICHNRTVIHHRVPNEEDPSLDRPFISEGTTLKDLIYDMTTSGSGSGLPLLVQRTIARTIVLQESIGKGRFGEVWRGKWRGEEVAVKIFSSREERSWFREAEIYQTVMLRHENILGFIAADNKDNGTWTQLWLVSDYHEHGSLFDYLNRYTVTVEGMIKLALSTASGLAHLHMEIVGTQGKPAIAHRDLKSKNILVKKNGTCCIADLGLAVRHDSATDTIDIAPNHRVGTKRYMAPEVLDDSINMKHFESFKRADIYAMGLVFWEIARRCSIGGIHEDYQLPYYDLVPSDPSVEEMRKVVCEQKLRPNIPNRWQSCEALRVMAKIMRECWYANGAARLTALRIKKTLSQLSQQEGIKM

[27] = biological target: CDK20 (Homo sapiens, UniProt Q8IZL9)
Chain of CDK20 (Q8IZL9 whole entry): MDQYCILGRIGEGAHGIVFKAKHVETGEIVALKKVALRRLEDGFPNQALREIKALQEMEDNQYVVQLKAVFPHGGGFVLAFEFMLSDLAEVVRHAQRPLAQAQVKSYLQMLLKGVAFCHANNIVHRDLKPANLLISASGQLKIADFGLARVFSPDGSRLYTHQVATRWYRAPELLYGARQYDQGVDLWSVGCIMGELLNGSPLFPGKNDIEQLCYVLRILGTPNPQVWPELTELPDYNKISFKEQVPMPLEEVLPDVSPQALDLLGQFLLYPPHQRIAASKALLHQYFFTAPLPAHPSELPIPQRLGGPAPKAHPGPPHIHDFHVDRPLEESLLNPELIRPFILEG

[28] = biological target: CAMK2A (Homo sapiens, UniProt Q9UQM7)
[29] = biological target: TRKC (Homo sapiens, UniProt Q16288)
[30] = biological target: CDK16 (Homo sapiens, UniProt Q00536)
[31] = biological target: PKN3 (Homo sapiens, UniProt Q6P5Z2)

Chain of RPS6KA2 (Q15349 whole entry): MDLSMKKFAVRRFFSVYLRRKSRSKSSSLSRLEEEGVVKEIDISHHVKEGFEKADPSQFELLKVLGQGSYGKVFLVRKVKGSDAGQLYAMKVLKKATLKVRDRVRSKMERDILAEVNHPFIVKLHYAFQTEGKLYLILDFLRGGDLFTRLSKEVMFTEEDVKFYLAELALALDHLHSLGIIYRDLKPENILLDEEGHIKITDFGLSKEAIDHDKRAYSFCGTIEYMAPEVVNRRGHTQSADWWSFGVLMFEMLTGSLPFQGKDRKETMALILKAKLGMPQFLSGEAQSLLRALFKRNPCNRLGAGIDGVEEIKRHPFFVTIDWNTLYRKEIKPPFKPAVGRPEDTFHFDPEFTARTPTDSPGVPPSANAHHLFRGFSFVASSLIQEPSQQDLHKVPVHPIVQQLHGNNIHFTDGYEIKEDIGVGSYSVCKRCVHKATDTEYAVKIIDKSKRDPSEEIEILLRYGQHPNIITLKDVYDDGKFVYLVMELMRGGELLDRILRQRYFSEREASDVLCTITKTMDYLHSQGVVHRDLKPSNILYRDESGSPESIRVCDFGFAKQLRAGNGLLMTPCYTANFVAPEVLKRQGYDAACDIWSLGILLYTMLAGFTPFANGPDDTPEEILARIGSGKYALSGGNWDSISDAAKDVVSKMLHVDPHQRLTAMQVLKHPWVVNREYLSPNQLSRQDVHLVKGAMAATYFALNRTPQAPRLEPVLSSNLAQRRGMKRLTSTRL
Chain of CK1d (P48730 whole entry): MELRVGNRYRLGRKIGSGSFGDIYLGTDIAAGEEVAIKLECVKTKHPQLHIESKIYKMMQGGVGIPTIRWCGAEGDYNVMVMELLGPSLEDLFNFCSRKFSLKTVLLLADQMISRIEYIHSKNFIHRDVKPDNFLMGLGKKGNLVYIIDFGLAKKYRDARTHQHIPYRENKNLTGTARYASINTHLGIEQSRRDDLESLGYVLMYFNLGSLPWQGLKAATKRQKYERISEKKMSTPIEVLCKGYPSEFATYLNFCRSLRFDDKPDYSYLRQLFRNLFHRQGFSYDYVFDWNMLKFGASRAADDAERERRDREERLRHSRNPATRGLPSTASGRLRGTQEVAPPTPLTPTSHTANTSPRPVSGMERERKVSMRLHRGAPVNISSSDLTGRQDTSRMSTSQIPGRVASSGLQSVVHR

O=C1NCCCCCNc2nc(c3ccccc3n2)Nc2cc1[nH]n2 [21c, (Z)-3^1H-2,5,11-triaza-1(4,2)-quinazolina-3(3,5)-pyrazolacycloundecaphan-4-one]
21c Remaining activity, percent of control [%] [1]: 81.2%
21c Remaining activity, percent of control [%] [2]: 112.8%
21c Remaining activity, percent of control [%] [3]: 115.4%
21c Remaining activity, percent of control [%] [4]: 84.0%
21c Remaining activity, percent of control [%] [5]: 98.8%
21c Remaining activity, percent of control [%] [6]: 68.5%
21c Remaining activity, percent of control [%] [7]: 100.7%
21c Remaining activity, percent of control [%] [8]: 91.4%
21c Remaining activity, percent of control [%] [9]: 105.4%
21c Remaining activity, percent of control [%] [10]: 100.3%
21c Remaining activity, percent of control [%] [11]: 96.9%
21c Remaining activity, percent of control [%] [12]: 90.2%
21c Remaining activity, percent of control [%] [13]: 87.2%
21c Remaining activity, percent of control [%] [14]: 79.0%
21c Remaining activity, percent of control [%] [15]: 88.5%
21c Remaining activity, percent of control [%] [16]: 94.6%
21c Remaining activity, percent of control [%] [17]: 103.8%
21c Remaining activity, percent of control [%] [18]: 86.5%
21c Remaining activity, percent of control [%] [19]: 72.1%
21c Remaining activity, percent of control [%] [20]: 98.8%
21c Remaining activity, percent of control [%] [21]: 81.8%
21c Remaining activity, percent of control [%] [22]: 95.4%
21c Remaining activity, percent of control [%] [23]: 100.3%
21c Remaining activity, percent of control [%] [24]: 89.2%
21c Remaining activity, percent of control [%] [25]: 98.8%
21c Remaining activity, percent of control [%] [26]: 124.6%
21c Remaining activity, percent of control [%] [27]: 84.4%
21c Remaining activity, percent of control [%] [28]: 110.6%
21c Remaining activity, percent of control [%] [29]: 102.0%
21c Remaining activity, percent of control [%] [30]: 94.1%
21c Remaining activity, percent of control [%] [31]: 92.6%
